Data taken from patent publication US8492371B2, “Compounds as cannabinoid receptor ligands” (priority 2009, dated 2013).
Like-named read-outs stand apart in the source and are kept apart here.

Experiments:
human CB2 receptors = molecular target: T1, human CB2 receptors (Homo sapiens, UniProt P34972); experiment: Human CB2 radioligand binding assay ([3H]CP-55,940 competition)
T1 construct: expressed in transfected cells; host or cells: HEK293
Protocol: The CB1 and CB2 radioligand binding assays described herein are utilized to determine the selectivity of compounds of the present invention for binding to CB2 relative to CB1 receptors.
(§1) HEK293 cells stably expressing human CB2 receptors were grown until a confluent monolayer was formed. Briefly, the cells were harvested and homogenized in TE buffer (50 mM Tris-HCl, 1 mM MgCl2, and 1 mM EDTA) using a polytron for 2×10 second bursts in the presence of protease inhibitors, followed by centrifugation at 45,000×g for 20 minutes. The final membrane pellet was re-homogenized in storage buffer (50 mM Tris-HCl, 1 mM MgCl2, and 1 mM EDTA and 10% sucrose) and frozen at −78° C. until used. Saturation binding reactions were initiated by the addition of membrane preparation (protein concentration of 5 μg/well for human CB2) into wells of a deep well plate containing ([^3H]CP-55,940 (120 Ci/mmol, a nonselective CB agonist commercially available from Tocris) in assay buffer (50 mM Tris, 2.5 mM EDTA, 5 mM MgCl2, and 0.5 mg/mL fatty acid free BSA, pH 7.4). After 90 min incubation at 30° C., binding reaction was terminated by the addition of 300 μL/well of cold assay buffer followed by rapid vacuum filtration through a UniFilter-96 GF/C filter plates (pre-soaked in 1 mg/mL BSA for 2 hours). The bound activity was counted in a TopCount using Microscint-20. Saturation experiments were conducted with twelve concentrations of [^3H]CP-55,940 ranging from 0.01 to 8 nM. Competition experiments were conducted with 0.5 nM [^3H]CP-55,940 and five concentrations of displacing ligands selected from the range of 0.01 nM to 10 μM. The addition of 10 μM unlabeled CP-55,940 (Tocris, Ellisville, Mo.) was used to assess nonspecific binding.

rat CB2 receptors = molecular target: T2, rat CB2 receptors (Rattus norvegicus, UniProt Q9QZN9); experiment: Rat CB2 radioligand binding assay ([3H]CP-55,940 competition)
T2 construct: expressed in transfected cells; host or cells: HEK293
T2 sequence (Q9QZN9 1-360): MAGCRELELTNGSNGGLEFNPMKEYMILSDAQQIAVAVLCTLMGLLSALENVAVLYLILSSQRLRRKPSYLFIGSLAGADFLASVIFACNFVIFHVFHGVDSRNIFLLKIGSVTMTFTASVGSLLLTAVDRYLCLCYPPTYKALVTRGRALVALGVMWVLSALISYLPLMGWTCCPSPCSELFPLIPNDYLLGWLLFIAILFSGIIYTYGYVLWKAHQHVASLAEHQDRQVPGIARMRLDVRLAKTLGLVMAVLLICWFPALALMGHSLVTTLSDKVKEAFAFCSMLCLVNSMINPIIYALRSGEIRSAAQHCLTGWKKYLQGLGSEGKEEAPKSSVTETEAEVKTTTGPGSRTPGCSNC
Protocol: as §1, with “expressing rat” for “expressing human”, “of 20” for “of 5”, “for rat” for “for human”, “containing [^3H]CP-55,940” for “containing ([^3H]CP-55,940”, “After 45” for “After 90”, “[…]” for “10 μM.”

T1 sequence (P34972 whole entry): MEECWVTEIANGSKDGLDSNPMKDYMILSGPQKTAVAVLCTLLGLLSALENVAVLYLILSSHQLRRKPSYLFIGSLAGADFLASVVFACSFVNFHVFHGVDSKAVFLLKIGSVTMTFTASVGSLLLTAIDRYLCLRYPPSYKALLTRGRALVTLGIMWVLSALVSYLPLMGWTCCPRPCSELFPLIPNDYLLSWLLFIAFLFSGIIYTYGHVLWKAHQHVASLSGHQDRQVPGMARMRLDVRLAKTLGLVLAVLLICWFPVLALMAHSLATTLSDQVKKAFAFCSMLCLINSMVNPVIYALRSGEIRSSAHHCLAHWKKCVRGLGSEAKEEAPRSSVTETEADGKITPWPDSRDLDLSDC

| SMILES | Ki (human CB2 receptors) [µM] | Ki (rat CB2 receptors) [µM] | Ki (human CB2 receptors; HEK293 membranes, 0.5 nM [3H]CP-55,940, read-out: human CB2 Ki) [µM] | Ki (rat CB2 receptors; HEK293 membranes, 0.5 nM [3H]CP-55,940, read-out: rat CB2 Ki) [µM] |
| --- | --- | --- | --- | --- |
| Cn1c(C(C)(C)C)c/c(=N\C(=O)c2cc(C(F)(F)F)ccc2OCC(F)(F)F)n1C[C@H]1CCCO1 [Example 21, N-{(3E)-5-tert-butyl-1-methyl-2-[(2R)-tetrahydrofuran-2-ylmethyl]-1,2-dihydro-3H-pyrazol-3-ylidene}-2-(2,2,2-trifluoroethoxy)-5-(trifluoromethyl)benzamide] | 0.063 | 0.022 | – | – |
| Cn1c(C(C)(C)C)c/c(=N\C(=O)c2cc(C(F)(F)F)ccc2OCCF)n1C[C@H]1CCCO1 [Example 22, N-{(3E)-5-tert-butyl-1-methyl-2-[(2R)-tetrahydrofuran-2-ylmethyl]-1,2-dihydro-3H-pyrazol-3-ylidene}-2-(2-fluoroethoxy)-5-(trifluoromethyl)benzamide] | 0.024 | 0.01 | – | – |
| COCCOc1ccc(C(F)(F)F)cc1C(=O)/N=c1\cc(C(C)(C)C)n(C)n1C[C@H]1CCCO1 [Example 23, N-{(3E)-5-tert-butyl-1-methyl-2-[(2R)-tetrahydrofuran-2-ylmethyl]-1,2-dihydro-3H-pyrazol-3-ylidene}-2-(2-methoxyethoxy)-5-(trifluoromethyl)benzamide] | 0.03 | 0.019 | – | – |
| Cn1c(C(C)(C)C)c/c(=N\C(=O)c2cc(C(F)(F)F)ccc2O)n1C[C@H]1CCCO1 [Example 24, N-{(3E)-5-tert-butyl-1-methyl-2-[(2R)-tetrahydrofuran-2-ylmethyl]-1,2-dihydro-3H-pyrazol-3-ylidene}-2-hydroxy-5-(trifluoromethyl)benzamide] | – | 0.029 | 0.26 | – |
| Cn1c(C(C)(C)C)c/c(=N\C(=O)c2cc(C(F)(F)F)ccc2OC(C)(C)C)n1C[C@H]1CCCO1 [Example 25, 2-tert-butoxy-N-{(3E)-5-tert-butyl-1-methyl-2-[(2R)-tetrahydrofuran-2-ylmethyl]-1,2-dihydro-3H-pyrazol-3-ylidene}-5-(trifluoromethyl)benzamide] | 0.101 | 0.04 | – | – |
| CO[C@@H](C)COc1ccc(C(F)(F)F)cc1C(=O)/N=c1\cc(C(C)(C)C)n(C)n1C[C@H]1CCCO1 [Example 28, N-{(3E)-5-tert-butyl-1-methyl-2-[(2R)-tetrahydrofuran-2-ylmethyl]-1,2-dihydro-3H-pyrazol-3-ylidene}-2-{[(2S)-2-methoxypropyl]oxy}-5-(trifluoromethyl)benzamide] | 0.101 | 0.044 | – | – |
| CCOCCCOc1ccc(C(F)(F)F)cc1C(=O)/N=c1\cc(C(C)(C)C)n(C)n1C[C@H]1CCCO1 [Example 29, N-{(3E)-5-tert-butyl-1-methyl-2-[(2R)-tetrahydrofuran-2-ylmethyl]-1,2-dihydro-3H-pyrazol-3-ylidene}-2-(3-ethoxypropoxy)-5-(trifluoromethyl)benzamide] | 0.0048 | 0.014 | – | – |
| COCCCOc1ccc(C(F)(F)F)cc1C(=O)/N=c1\cc(C(C)(C)C)n(C)n1C[C@H]1CCCO1 [Example 30, N-{(3E)-5-tert-butyl-1-methyl-2-[(2R)-tetrahydrofuran-2-ylmethyl]-1,2-dihydro-3H-pyrazol-3-ylidene}-2-(3-methoxypropoxy)-5-(trifluoromethyl)benzamide] | 0.0038 | 0.011 | – | – |
| CCOCCOc1ccc(C(F)(F)F)cc1C(=O)/N=c1\cc(C(C)(C)C)n(C)n1C[C@H]1CCCO1 [Example 31, N-{(3E)-5-tert-butyl-1-methyl-2-[(2R)-tetrahydrofuran-2-ylmethyl]-1,2-dihydro-3H-pyrazol-3-ylidene}-2-(2-ethoxyethoxy)-5-(trifluoromethyl)benzamide] | 0.011 | 0.0062 | – | – |
| COc1ccc(C(F)(F)F)cc1C(=O)/N=c1\c2c(n(C)n1C[C@H]1CCCO1)CCC2 [Example 32, 2-methoxy-N-[(3E)-1-methyl-2-[(2R)-tetrahydrofuran-2-ylmethyl]-1,4,5,6-tetrahydrocyclopenta[c]pyrazol-3(2H)-ylidene]-5-(trifluoromethyl)benzamide] | 0.261 | – | – | 0.114 |
